Results on 10 molecules are retold here after patent US20090186838A1, “Amphotericin Derivatives” (Eidgenössische Technische Hochschule Zürich, priority 2006, published 2009).

≈ marks a conversion by molar mass, not a printed value. Like-named read-outs stand apart in the source and are kept apart here.

For the assay, the system named is Saccharomyces cerevisiae wild type BY4741. The experiment in a line: MIC determination in Saccharomyces cerevisiae wild type BY4741. In kind it is cell-based. As for the experimental part:
In Vitro Antifungal Activity. MIC values for various strains were determined in accordance with the standard protocol from the National Committee of Clinical Laboratory Standards but using YEPD liquid medium instead of RPMI-1640 medium (National Committee of Clinical Laboratory Standards (Reference Method for Broth Dilution Antifungal Susceptibility Testing of Yeast, M27-A2, Approved Standard-Second Edition, Volume 22, Number 15, 1995). AmB was used as a reference. The strains were cultivated overnight in 5 mL YEPD liquid medium at 30 to 37° C. (30° C. for the strain BY4741; 37° C. for the strain DSY1764) with constant shaking. The saturated cultures were diluted to an ODB600 of 0.1 (3×10P^7 cells/mL). Using 24 wells plate, each well was prepared by adding 1% (12 μL) of DMSO solution of the tested polyene macrolide with 1% (12 μL) yeast cells solution and completed with YEPD (1.176 mL). The plates were sealed with Parafilm and then incubated for 18 to 36 hours at 30 to 37° C. (18 hours at 30° C. for the strain BY4741; 36 hours at 37° C. for the strain DSY1764). The optical density was read at 600 nm using 1.5 mL cuvettes. The MIC value was defined as the drug concentration needed to inhibit growth, less than 5% compared to a drug-free culture.
MIC values of various polyene macrolides of the invention in Saccharomyces cerevisiae wild type BY4741, a derivative of S288C, (with AmB as a reference) were determined as described hereinabove.
Based on the remarkable performance observed with the Diamine-AmB conjugate similar modifications of the aminosugar moiety were made on other polyene macrolides, such as for example Nystatin (1b) and Pimaricin (1c). The antifungal activity of these nystatin and pimaricin conjugates bearing two aminopropyl side chains was measured using Saccharomyces cerevisiae wild type BY4741.

[1] abbreviates: Table 5, Saccharomyces cerevisiae wild type BY4741, read-out: MIC.
Setting [2] is: Saccharomyces cerevisiae wild type BY4741.
Setting [3] is: Saccharomyces cerevisiae wild type BY4741, YEPD liquid medium, 18 hours at 30° C., read-out: MIC.

`C[C@@H]1C/C=C/C=C/C=C/C=C/[C@H](O[C@@H]2O[C@H](C)[C@@H](O)[C@H](N)[C@@H]2O)C[C@@H]2O[C@](O)(C[C@@H](O)C[C@H]3O[C@@H]3/C=C/C(=O)O1)C[C@H](O)[C@H]2C(=O)O` [1c (Pimaricin), Pimaricin, reference compound]: under setting [1], the MIC was 4 µM (≈ 2.66 µg/mL).
As to `C[C@@H]1[C@H](O)[C@@H](C)/C=C/C=C/C=C/C=C/C=C/C=C/C=C/[C@H](O[C@@H]2O[C@H](C)[C@@H](O)[C@H](N(CCNC(=N)N)CCNC(=N)N)[C@@H]2O)CC2O[C@](O)(C[C@@H](O)C[C@@H](O)[C@H](O)CC[C@@H](O)C[C@@H](O)CC(=O)O[C@H]1C)C[C@H](O)[C@H]2C(=O)O` [compound 6, N,N-Di-(2-ethylguanidine)-AmB], the MIC (Saccharomyces cerevisiae, 18 h) was found to be 0.1 µM (≈ 0.109 µg/mL).
As to `C[C@@H]1[C@H](O)[C@@H](C)/C=C/C=C/CC/C=C/C=C/C=C/C=C/[C@H](O[C@@H]2O[C@H](C)[C@@H](O)[C@H](N(CCCN)CCCN)[C@@H]2O)CC2O[C@](O)(C[C@@H](O)[C@H](O)CC[C@@H](O)C[C@@H](O)C[C@@H](O)CC(=O)O[C@H]1C)C[C@H](O)[C@H]2C(=O)O` [compound 17, N,N-Di-(3-aminopropyl)-Nystatin], the MIC (Saccharomyces cerevisiae) worked out at 0.05 µM (≈ 0.052 µg/mL). In addition, under setting [2], the “antifungal activity compared with the native compounds 1b and 1c” value was “significantly more active”.
Regarding `C[C@@H]1C/C=C/C=C/C=C/C=C/[C@H](O[C@@H]2O[C@H](C)[C@@H](O)[C@H](N(CCCN)CCCN)[C@@H]2O)C[C@@H]2O[C@](O)(C[C@@H](O)C[C@H]3O[C@@H]3/C=C/C(=O)O1)C[C@H](O)[C@H]2C(=O)O` [compound 18, N,N-Di-(3-aminopropyl)-Pimaricin], the “antifungal activity compared with the native compounds 1b and 1c” value under setting [2] is on record as “significantly more active”. The MIC under setting [1] is 0.3 µM (≈ 0.234 µg/mL).
Regarding `C[C@@H]1[C@H](O)[C@@H](C)/C=C/C=C/C=C/C=C/C=C/C=C/C=C/[C@H](O[C@@H]2O[C@H](C)[C@@H](O)[C@H](N(CC(N)CCCCN)CC(N)CCCCN)[C@@H]2O)CC2O[C@](O)(C[C@@H](O)C[C@@H](O)[C@H](O)CC[C@@H](O)C[C@@H](O)CC(=O)O[C@H]1C)C[C@H](O)[C@H]2C(=O)O` (stereo partly drawn) [compound 5, N,N-Di-(2,6-diaminohexyl)-AmB], the MIC (Saccharomyces cerevisiae, 18 h) was 0.08 µM (≈ 0.0922 µg/mL).
As to `C[C@@H]1[C@H](O)[C@@H](C)/C=C/C=C/C=C/C=C/C=C/C=C/C=C/[C@H](O[C@@H]2O[C@H](C)[C@@H](O)[C@H](N3CCN(C(=O)CCCCCNC(=O)C(N)CCCCNC(=N)N)CC3)[C@@H]2O)CC2O[C@](O)(C[C@@H](O)C[C@@H](O)[C@H](O)CC[C@@H](O)C[C@@H](O)CC(=O)O[C@H]1C)C[C@H](O)[C@H]2C(=O)O` (stereo partly drawn) [compound 8, 2-Amino-6-guanidine-N-[6-oxo-6-(piperazin-1-yl)-hexyl]-hexanamide-AmB], under setting [3], the minimum inhibitory concentration (MIC) was found to be 0.1 µM (≈ 0.128 µg/mL).
Turning to `C[C@@H]1[C@H](O)[C@@H](C)/C=C/C=C/C=C/C=C/C=C/C=C/C=C/[C@H](OC2O[C@H](C)[C@@H](O)[C@H](N(CCCO)CCCO)[C@@H]2O)CC2O[C@](O)(C[C@@H](O)C[C@@H](O)[C@H](O)CC[C@@H](O)C[C@@H](O)CC(=O)O[C@H]1C)C[C@H](O)[C@H]2C(=O)O` (stereo partly drawn) [compound 4, N,N-Di-(3-hydroxypropyl)-AmB], the MIC (Saccharomyces cerevisiae, 18 h) worked out at 0.5 µM (≈ 0.52 µg/mL).
In turn, `C[C@@H]1[C@H](O)[C@@H](C)/C=C/C=C/C=C/C=C/C=C/C=C/C=C/[C@H](OC2O[C@H](C)[C@@H](O)[C@H](N(CCN)CCN)[C@@H]2O)CC2O[C@](O)(C[C@@H](O)C[C@@H](O)[C@H](O)CC[C@@H](O)C[C@@H](O)CC(=O)O[C@H]1C)C[C@H](O)[C@H]2C(=O)O` (stereo partly drawn) [compound 2, N,N-Di-(2-aminoethyl)-AmB] showed an MIC (Saccharomyces cerevisiae, 18 h) of 0.25 µM (≈ 0.253 µg/mL).
As to `C[C@@H]1[C@H](O)[C@@H](C)/C=C/C=C/C=C/C=C/C=C/C=C/C=C/[C@H](O[C@@H]2O[C@H](C)[C@@H](O)[C@H](N3CCN(C(=O)CCCCCNC(=O)C(N)CCCCN)CC3)[C@@H]2O)CC2O[C@](O)(C[C@@H](O)C[C@@H](O)[C@H](O)CC[C@@H](O)C[C@@H](O)CC(=O)O[C@H]1C)C[C@H](O)[C@H]2C(=O)O` (stereo partly drawn) [compound 7, 2,6-Diamino-N-[6-oxo-6-(piperazin-1-yl)-hexyl]-hexanamide-AmB], under setting [3], the minimal inhibitory concentration (MIC) is 0.1 µM (≈ 0.123 µg/mL).
With `C[C@@H]1[C@H](O)[C@@H](C)/C=C/C=C/CC/C=C/C=C/C=C/C=C/C(O[C@H]2O[C@H](C)[C@@H](O)[C@H](N)[C@@H]2O)CC2O[C@](O)(CC(O)C(O)CCC(O)CC(O)CC(O)CC(=O)O[C@H]1C)CC(O)C2C(=O)O` (stereo partly drawn) [1b (Nystatin), Nystatin, reference compound], the minimal inhibitory concentration (MIC) under setting [1] is 3.0 µM (≈ 2.78 µg/mL).
